# Reference: patent publication US20140363871A1, “PROCESS FOR OBTAINING COPPER NANOPARTICLES FROM A FUNGUS SELECTED BETWEEN HYPOCREA LIXII AND TRICHODERMA KONINGIOPSIS AND USE OF FUNGI SELECTED BETWEEN HYPOCREA LIXII AND TRICHODERMA KONINGIOPSIS IN BIOREMEDIATION OF WASTEWATER AND PRODUCTION OF COPPER NANOPARTICLES” (VALE S.A., priority 2013, published 2014)
# Key:
# H. lixii = test: Minimum inhibitory concentration in agar medium (spot plate method); assay type: cell-based, Hypocrea lixii; conditions: H. lixii on SDA plates with copper 50-2000 mg L^−1, 25° C., at least 5 days
# Method: (§1) Copper tolerance of the isolated fungus was determined as the minimum inhibitory concentration (MIC) by the spot plate method [Ahmad I, Ansari M I, Aqil F (2006) Biosorption of Ni, Cr and Cd by metal tolerante Aspergillus niger and Penicillium sp using single and multi-metal solution. Indian J Exp Biol 44: 73-76]. SDA plates containing different concentrations of copper (50 to 2000 mg L^−1) were prepared and inocula of the tested fungus were spotted onto the metal and control plates (plate without metal). The plates were incubated at 25° C. for at least 5 days. The MIC is defined as the lowest concentration of metal that inhibits visible growth of the isolate.
# T. koningiopsis = test: as above; assay type: cell-based, Trichoderma koningiopsis; conditions: T. koningiopsis on SDA plates with copper 50-2000 mg L^−1, 25° C., at least 5 days
# Method: as §1
smiles,measurement,setting,value
"O.O.[Cl][Cu][Cl] [copper, CuCl2.2H2O]","minimum inhibitory concentration (MIC), tolerance to copper",H. lixii,528 mg/L
same,"minimum inhibitory concentration (MIC), tolerance to copper",T. koningiopsis,1057 mg/L
